Key:
Assay type in all cases: functional
[1] = system: L929; experiment: Cytotoxicity against Mus musculus (mouse) L929 cells assessed as metabolically active cells at 200 ug/ml after 24 hr by MTT assay relative to control
[2] = system: L929; experiment: Cytotoxicity against Mus musculus (mouse) L929 cells assessed as metabolically active cells at 150 ug/ml after 24 hr by MTT assay relative to control
[3] = system: L929; experiment: Cytotoxicity against Mus musculus (mouse) L929 cells assessed as metabolically active cells at 50 ug/ml after 24 hr by MTT assay relative to control
[4] = system: L929; experiment: Cytotoxicity against Mus musculus (mouse) L929 cells assessed as metabolically active cells at 100 ug/ml after 24 hr by MTT assay relative to control

COc1ccc2cc3[n+](cc2c1OC)CCc1cc2c(cc1-3)OCO2.[Cl-] [BERBERINE CHLORIDE]
Activity [1]: 23.57% | Activity [2]: 41.77% | Activity [3]: 106.45% | Activity [4]: 67.41%

Source: ChEMBL document CHEMBL3044997, “Cytotoxic Effect of Coscinium Fenestratrum (Gaertn.) Colebr. and its Active Principle Berberine on L929 Cells” (2005)
